Patent US20060148838A1, “Novel pyrrolodihydroisoquinolines useful in the treatment of cancer” (Altana Pharma AG, priority 2003, published 2006)

How the values were obtained:
[1] = system: NCl-H460 non-small cell lung cancer cells; experiment: Alamar Blue cell viability assay, anti-proliferative/cytotoxic activity; format: cell-based; conditions: 72 hours incubation, one range stated for all listed Examples, read-out: −log IC50 NCl-H460 (converted)
Experimental: The anti-proliferative/cytotoxic activity of the compounds described herein, can be tested on NCl-H460 non-small cell lung cancer cells using the Alamar Blue cell viability assay (described in O'Brien et al. Eur J Biochem 267, 5421-5426, 2000). The compounds are dissolved as 20 mM solutions in dimethylsulfoxide (DMSO) and subsequently diluted in semi-logarithmic steps. DMSO dilutions are further diluted 1:100 into Dulbecco's modified Eagle's medium (DMEM) containing 10% fetal calf serum to a final concentration twice as much as the final concentration in the test. NCl-460 cells are seeded into 96 well flat bottom plates at a density of 4000 cells per well in a volume of 50 μl per well. 24 hours after seeding the 50 μl each of the compound dilutions in DMEM medium are added into each well of the 96 Well plate. Each compound dilution is tested as quadruplicates. Wells containing untreated control cells are filled with 50 μl DMEM medium containing 1% DMSO. The cells are then incubated with the substances for 72 hours at 37° C. In a humified atmosphere containing 5% carbon dioxide. To determine the viability of the cells, 10 μl of an Alamar Blue solution (Biosource) are added and the fluorescence is measured at an extinction of 544 nm and an emission of 590 nm. For the calculation of cell viability the emission value from untreated cells is set to 100% viability and the emission rates of treated cells are set in relation to the values of untreated cells. Viabilities are expressed as % values.
The corresponding IC50 values of the compounds for anti-proliferative/cytotoxic activity are determined from the concentration-effect curves.
Representative advantageous IC50 values for anti-proliferation/cytotoxicity determined for the compounds mentioned and numbered as Examples in the examples above follow from the following table A, in which the numbers of the compound correspond to the numbers of the examples.

Row | melting point | Structure (SMILES) | IC50 [1]
1 | 209 to 211 °C | CCOC(=O)c1c(-c2cc(C)c(O)c(C)c2)c(C)n2c1-c1cc([N+](=O)[O-])c(OC)cc1CC2 [Example 22, 2-(4-Hydroxy-3,5-dimethyl-phenyl)-8-methoxy-3-methyl-9-nitro-5,6-dihydro-pyrrolo[2,1-a]isoquinoline-1-carboxylic acid ethyl ester] | 398 to 3160 nM
2 | 104 to 106 °C | CCOC(=O)c1c(-c2cc(C)c(O)c(C)c2)c(C)n2c1-c1cc(N)c(OC)cc1CC2 [Example 25, 9-Amino-2-(4-hydroxy-3,5-dimethyl-phenyl)-8-methoxy-3-methyl-5,6-dihydro-pyrrolo[2,1-a]isoquinoline-1-carboxylic acid ethyl ester] | 398 to 3160 nM
3 | 200 to 202 °C | CCOC(=O)c1c(-c2cc(C)c(O)c(C)c2)c(C)n2c1-c1cc(OC)c(OC)cc1C(C)(C)C2 [Example 1, 2-(4-hydroxy-3,5-dimethyl-phenyl)-8,9-dimethoxy-3,6,6-trimethyl-5,6-dihydro-pyrrolo[2,1-a]isoquinoline-1-carboxylic acid ethyl ester] | 398 to 3160 nM
4 | 271 to 273 °C | COc1cc2c(cc1OC)-c1c(C(=O)Nc3ccccc3)c(-c3cc(C)c(O)c(C)c3)c(C)n1CC2 [Example 34, 2-(4-Hydroxy-3,5-dimethyl-phenyl)-8,9-dimethoxy-3-methyl-5,6-dihydro-pyrrolo[2,1-a]isoquinoline-1-carboxylic acid phenylamide] | 398 to 3160 nM
